Results published in patent US7049336B2, “Method for diagnosing neuronal diseases and for treating primary hemostasis deficiency” (Max-Delbruck-Centrum fur Molekularc Medizin, priority 2000, dated 2006).

System: TPH(−/−)-mice
Assay: Bleeding time (disturbed hemostasis) in TPH(−/−)-mice after intracardial injection
Format: in vivo, mouse
Details: for Effect on prolonged bleeding time phenotype: TPH(−/−)-mice
From the text: FIG. 3. Disturbed hemostasis in TPH(−/−)-mice. • A. Prolonged bleeding times of TPH(−/−)-animals. […] The 5-HT-amounts applied result in 1/10 and the ten-fold of the normal blood concentrations. • C. […] The effect is specific for the TPH(−/−)-mice, whereas control-animals are not affected.

Compound | Effect on prolonged bleeding time phenotype (intracardial 5-HT-injection, amounts result in 1/10 and the ten-fold of the normal blood concentrations) | Effect on prolonged bleeding time phenotype (intracardial von Willebrand-factor injection) | Effect on bleeding time in control-animals (control-animals, intracardial von Willebrand-factor injection)
NCCc1c[nH]c2ccc(O)cc12 [5-HT, serotonin, reference compound] | Healing of the phenotype |  | 
von Willebrand-factor: commercially available von Willebrand-factor (vWF) |  | Healing of the phenotype | not affected
